# Measured values taken from PubChem BioAssay AID1259407 (Chemical Carcinogenesis Research Information System (CCRIS), 2018).
# Active and inactive are the calls of the source. No rule for the calls is given here.
# System: CCRIS mutagenicity, Ames/micronucleus/aberration tests
# Assay: CCRIS mutagenicity studies
# [1] = Test System: AMES SALMONELLA TYPHIMURIUM, Strain/Indicator: TA100, Metabolic Activation: NONE, Method: PREINCUBATION
# [2] = Test System: AMES SALMONELLA TYPHIMURIUM, Strain/Indicator: TA98, Metabolic Activation: NONE, Method: STANDARD PLATE
# [3] = Test System: AMES SALMONELLA TYPHIMURIUM, Strain/Indicator: TA98, Metabolic Activation: RAT, LIVER, S-9, AROCLOR 1254, Method: STANDARD PLATE
# [4] = Test System: AMES SALMONELLA TYPHIMURIUM, Strain/Indicator: TA100, Metabolic Activation: NONE, Method: STANDARD PLATE
# [5] = Test System: AMES SALMONELLA TYPHIMURIUM, Strain/Indicator: TA100, Metabolic Activation: RAT, LIVER, S-9, AROCLOR 1254, Method: STANDARD PLATE
# [6] = Test System: AMES SALMONELLA TYPHIMURIUM, Strain/Indicator: TA1538, Metabolic Activation: RAT, LIVER, S-9, AROCLOR 1254, Method: STANDARD PLATE
structure (smiles),measurement,setting,value
O=C(O)CBr,mutagenic call,"End Point: IN VITRO CHROMOSOMAL ABERRATIONS, Test System: CHL CELLS, Metabolic Activation: NONE",active; positive (structural changes)
same,mutagenic call,"End Point: IN VITRO CHROMOSOMAL ABERRATIONS, Test System: CHL CELLS, Metabolic Activation: RAT, LIVER, S-9, SODIUM PHENOBARBITAL AND 5,6-BENZOFLAVONE",active; positive (structural changes)
same,mutagenic call,"Test System: AMES SALMONELLA TYPHIMURIUM, Strain/Indicator: RSJ100, Metabolic Activation: NONE, Method: PREINCUBATION",inactive; negative
same,mutagenic call,"Test System: AMES SALMONELLA TYPHIMURIUM, Strain/Indicator: RSJ100, Metabolic Activation: RAT LIVER S-9, AROCLOR 1254, Method: PREINCUBATION",inactive; negative
same,mutagenic call,"Test System: AMES SALMONELLA TYPHIMURIUM, Strain/Indicator: TA98, Metabolic Activation: RAT LIVER S-9, AROCLOR 1254, Method: PREINCUBATION",active; positive
same,mutagenic call,"Test System: AMES SALMONELLA TYPHIMURIUM, Strain/Indicator: TA98, Metabolic Activation: RAT LIVER S-9, PHENOBARBITAL AND BETA-NAPHTHOFLAVONE, Method: PREINCUBATION",inactive; negative
same,mutagenic call,"Test System: AMES SALMONELLA TYPHIMURIUM, Strain/Indicator: TA100, Metabolic Activation: NONE, Method: FLUCTUATION TEST",inactive; negative
same,mutagenic call,[1],active; positive
same,mutagenic call,"Test System: AMES SALMONELLA TYPHIMURIUM, Strain/Indicator: TA100, Metabolic Activation: RAT LIVER S-9, AROCLOR 1254, Method: PREINCUBATION",active; positive
same,mutagenic call,"Test System: AMES SALMONELLA TYPHIMURIUM, Strain/Indicator: TA100, Metabolic Activation: RAT LIVER S-9, PHENOBARBITAL AND BETA-NAPHTHOFLAVONE, Method: PREINCUBATION",inactive; negative
same,mutagenic call,"Test System: AMES SALMONELLA TYPHIMURIUM, Strain/Indicator: TA100, Metabolic Activation: RAT, LIVER, S-9, AROCLOR 1254, Method: FLUCTUATION TEST",active; positive
same,mutagenic call,"Test System: AMES SALMONELLA TYPHIMURIUM, Strain/Indicator: TA1535, Metabolic Activation: NONE, Method: PREINCUBATION",inactive; negative
same,mutagenic call,"Test System: AMES SALMONELLA TYPHIMURIUM, Strain/Indicator: TA1535, Metabolic Activation: RAT LIVER S-9, PHENOBARBITAL AND BETA-NAPHTHOFLAVONE, Method: PREINCUBATION",inactive; negative
same,mutagenic call,"Test System: AMES SALMONELLA TYPHIMURIUM, Strain/Indicator: TA1537, Metabolic Activation: NONE, Method: PREINCUBATION",inactive; negative
same,mutagenic call,"Test System: AMES SALMONELLA TYPHIMURIUM, Strain/Indicator: TA1537, Metabolic Activation: RAT LIVER S-9, PHENOBARBITAL AND BETA-NAPHTHOFLAVONE, Method: PREINCUBATION",inactive; negative
same,mutagenic call,"Test System: E.COLI, Strain/Indicator: WP2UVRA, Metabolic Activation: NONE, Method: PREINCUBATION",inactive; negative
same,mutagenic call,"Test System: E.COLI, Strain/Indicator: WP2UVRA, Metabolic Activation: RAT LIVER S-9, PHENOBARBITAL AND BETA-NAPHTHOFLAVONE, Method: PREINCUBATION",inactive; negative
CNC(=O)Nc1ccccc1,mutagenic call,[2],inactive; negative
same,mutagenic call,[3],inactive; negative
same,mutagenic call,[4],inactive; negative
same,mutagenic call,[5],inactive; negative
same,mutagenic call,"Test System: AMES SALMONELLA TYPHIMURIUM, Strain/Indicator: TA1535, Metabolic Activation: NONE, Method: STANDARD PLATE",inactive; negative
same,mutagenic call,"Test System: AMES SALMONELLA TYPHIMURIUM, Strain/Indicator: TA1535, Metabolic Activation: RAT, LIVER, S-9, AROCLOR 1254, Method: STANDARD PLATE",inactive; negative
same,mutagenic call,"Test System: AMES SALMONELLA TYPHIMURIUM, Strain/Indicator: TA1537, Metabolic Activation: NONE, Method: STANDARD PLATE",inactive; negative
same,mutagenic call,"Test System: AMES SALMONELLA TYPHIMURIUM, Strain/Indicator: TA1537, Metabolic Activation: RAT, LIVER, S-9, AROCLOR 1254, Method: STANDARD PLATE",inactive; negative
same,mutagenic call,"Test System: AMES SALMONELLA TYPHIMURIUM, Strain/Indicator: TA1538, Metabolic Activation: NONE, Method: STANDARD PLATE",inactive; negative
same,mutagenic call,[6],inactive; negative
NC(=NCCCCCCN=C(N)/N=C(\N)Nc1ccc(Cl)cc1)/N=C(\N)Nc1ccc(Cl)cc1,mutagenic call,"End Point: IN VITRO CHROMOSOMAL ABERRATIONS, Test System: SYRIAN HAMSTER EMBRYO (SHE) CELLS, Metabolic Activation: NONE",inactive; negative; toxic at 10 um
same,mutagenic call,"End Point: IN VITRO CHROMOSOMAL ABERRATIONS, Test System: SYRIAN HAMSTER EMBRYO (SHE) CELLS, Metabolic Activation: RAT, LIVER, S-9",inactive; negative
Nc1ccc2c(c1)C(=O)/C(=N/Nc1ccc(-c3ccc(N/N=C4\C=CC(=O)C(C(=O)O)=C4)cc3)cc1)C(S(=O)(=O)O)=C2,mutagenic call,"Test System: AMES SALMONELLA TYPHIMURIUM, Strain/Indicator: TA98, Metabolic Activation: HAMSTER, LIVER, S-9, Method: PREINCUBATION (PRIVAL METHOD)",active; positive
COc1c(O)cc(Cl)cc1Cl,mutagenic call,"Test System: CHINESE HAMSTER V-79, Strain/Indicator: V-79/6-THIOGUANINE, Metabolic Activation: NONE, Method: STANDARD PLATE",inactive; negative
CCCCCC[C@H]1C(=O)O[C@H](C)[C@H](NC(=O)c2cccc(NC=O)c2O)C(=O)O[C@@H](C)[C@@H]1OC(=O)CC(C)C,mutagenic call,"End Point: In vitro chromosomal aberrations, Test System: Chinese hamster lung (CHL/IU) cells, Metabolic Activation: None",inactive; negative
same,mutagenic call,"End Point: In vitro chromosomal aberrations, Test System: Chinese hamster lung (CHL/IU) cells, Metabolic Activation: Rat, Liver, S-9, Phenobarbital and 5,6-benzoflavone (16.7%)",active; positive (structural aberrations)
same,mutagenic call,"End Point: In vitro chromosomal aberrations, Test System: Chinese hamster ovary (CHO-WBL) cells, Metabolic Activation: Rat, Liver, S-9, Phenobarbital and 5,6-benzoflavone (5%)",active; positive (structural changes and polyploidy)
same,mutagenic call,"End Point: In vitro chromosomal aberrations, Test System: Chinese hamster ovary (CHO-WBL) cells, Metabolic Activation: Rat, Liver, S-9, Phenobarbital and 5,6-benzoflavone (16.7%)",active; positive (polyploidy)
same,mutagenic call,"Test System: MOUSE LYMPHOMA, Strain/Indicator: L5178Y (TK+/TK-), Metabolic Activation: NONE, Method: SUSPENSION/PLATE",inactive; negative
COC1=CC(=O)O[C@@H](CCc2ccc3c(c2)OCO3)C1,mutagenic call,"Test System: Mouse lymphoma cells, Strain/Indicator: L5178Y ( tk+/tk-), Metabolic Activation: Human, Liver, S-9, Method: Suspension/plate",inactive; negative
COP1(=S)OCc2ccccc2O1 (stereo not drawn),mutagenic call,[4],active; positive
same,mutagenic call,"Test System: AMES SALMONELLA TYPHIMURIUM, Strain/Indicator: TA100, Metabolic Activation: S-9 MIX, Method: STANDARD PLATE",active; positive
CC(C)(C)NCC(O)COc1cccc2c1CCCC2=O (stereo not drawn),mutagenic call,[2],inactive; negative
same,mutagenic call,[3],inactive; negative
same,mutagenic call,[4],inactive; negative
same,mutagenic call,[5],inactive; negative
[Cl-].[Cl-].[NH2-].[NH2-].[NH2-].[NH2-].[Pt+2],mutagenic call,"Test System: AMES SALMONELLA TYPHIMURIUM, Strain/Indicator: TA98, Metabolic Activation: NONE, Method: PREINCUBATION",inactive; negative
same,mutagenic call,"Test System: AMES SALMONELLA TYPHIMURIUM, Strain/Indicator: TA98, Metabolic Activation: RAT, LIVER, S-9, AROCLOR 1254, Method: PREINCUBATION",inactive; negative
same,mutagenic call,[1],inactive; negative
same,mutagenic call,"Test System: AMES SALMONELLA TYPHIMURIUM, Strain/Indicator: TA100, Metabolic Activation: RAT, LIVER, S-9, AROCLOR 1254, Method: PREINCUBATION",inactive; negative
C=CC[C@]1(O)CC[C@H]2[C@@H]3CCC4=CCCC[C@@H]4[C@H]3CC[C@@]21C,mutagenic call,"End Point: IN VIVO MICRONUCLEUS, Test System: HEPATOCYTES, Species: RAT, Strain/Sex: SPRAGUE-DAWLEY/FEMALE, Route: INTRAGASTRIC (GAVAGE)",inactive; negative (increase not significant)
CC1(C)Cc2ncccc2-c2nc(N)sc21,mutagenic call,[6],active; positive
c1ccc([As+](c2ccccc2)(c2ccccc2)c2ccccc2)cc1,mutagenic call,"Test System: Mouse lymphoma, Strain/Indicator: L5178Y (TK+/TK-), Metabolic Activation: None, Method: Microwell",inactive; negative
COc1ccc2cc3c4c(cc(OC)c(OC)c4c2c1)CCN3C,mutagenic call,"Test System: AMES SALMONELLA TYPHIMURIUM, Strain/Indicator: TA100, Metabolic Activation: RAT, LIVER, S-9, PHENOBARBITAL AND BETA-NAPHTHOFLAVONE, Method: PREINCUBATION",inactive; negative
CNN(C)c1ccn([C@@H]2O[C@H](CO)[C@@H](O)[C@H]2O)c(=O)n1,mutagenic call,"Test System: CHINESE HAMSTER V-79, Strain/Indicator: V-79/6-THIOGUANINE, Metabolic Activation: NONE, Method: REPLATING",inactive; negative
[N-]=[N+]=NC[C@H](CO)Cc1ccccc1,mutagenic call,"Test System: AMES SALMONELLA TYPHIMURIUM, Strain/Indicator: TA100, Metabolic Activation: RAT, LIVER, S-9, PCB, Method: PREINCUBATION",active; positive
